From patent publication US5519018A, “Substituted phenols and their use for the treatment of disorders caused by cell proliferation” (Behringwerke Aktiengesellschaft, priority 1992, dated 1996)
Like-named read-outs stand apart in the source and are kept apart here.

What was measured:
[1] = molecular target: T1, EGF receptor tyrosine kinase (EGFRTK) (Homo sapiens, UniProt P00533); experiment: biochemical
T1 construct: This cell line expresses a large number of EGF receptors which have tyrosine kinase activity on the cell surface; endogenous in cells; host or cells: A 431 (ATCC CRL 1555), membrane preparation
Method: Test for EGF receptor tyrosine kinase inhibition
This cell line expresses a large number of EGF receptors which have tyrosine kinase activity on the cell surface. The cells were cultured almost to confluence, washed with PBS (phosphate buffered saline, pH 7.2), scraped off the culture flask and incubated at 4° C. for 1 h, subjected to 20 strokes in a Potter and centrifuged at 1000 g for 30'. The supernatant was centrifuged at 20000 g for a further 20 min and the pellet was taken up in 100 μl per 1×10^6 cells as the membrane preparation.
The tyrosine kinase activity of the EGF receptor (EGFRTK) was measured using poly(Glu, Ala, Tyr), 6:3:1, as the substrate. […] After 15'at 30° C., the substrate was precipitated with 10% TCA (trichloroacetic acid), filtered on a millititer filtration plate (Millipore Corporation, Massachusetts, USA), washed and dried. The incorporation of ^32 P was determined by means of a liquid scintillation counter.

[2] = tested on: cAMP-dependent protein kinase (PKA); experiment: Test for 3',5'-cAMP-dependent protein kinase inhibition (PKA catalytic subunit, Kemptide substrate); type: biochemical; conditions: 40 μM ATP, 15' at 30° C.
Method: Test for 3',5'-cAMP-dependent protein kinase inhibition
The catalytic subunit of the cAMP-dependent protein kinase (PKA) (Sigma) was reconstituted as described by Sigma (Sigma Chemical Co., St. Louis, Mo. USA). The enzyme activity was measured using Kemptide (Sigma) (Leu-Arg-Arg-Ala-Ser-Leu-Gly) as a substrate. […] The reaction was initiated by addition of gamma-^32 P ATP (40 μM) After 15'at 30° C., an aliquot part was added to p81 ion exchanger (2×2 cm; Whatman Paper Ltd., Great Britain), immersed in 75 mM H3 PO4, washed, dried, and the incorporation of ^32 P was determined by means of a liquid scintillation counter.

hela cells = experiment: Test for inhibition of EGF-stimulated proliferation of tumor cells (hela, MTT); type: cell-based; conditions: 65 h; for inhibition at 5 µg/mL / inhibition at 25 µg/mL / inhibition at 1 µg/mL / inhibition at 0.2 µg/mL: Homo sapiens; for inhibition at 5 µg/mL: read-out: EGF stimulation % inhibition at 5 μg/ml; for inhibition at 25 µg/mL: read-out: EGF stimulation % inhibition at 25 μg/ml; for inhibition at 1 µg/mL: read-out: EGF stimulation % inhibition at 1 μg/ml; for inhibition at 0.2 µg/mL: read-out: EGF stimulation % inhibition at 0.2 μg/ml
Method: Test for inhibition of EGF- or bFGF-stimulated proliferation of tumor cells
2×10^3 hela cells per well were inoculated into a 96-well microtiter plate (in RPMI+1% FCS ). After 24 h, the medium was changed to RPMI+0.5% FCS and various concentrations of the test substance±EGF (0.1 nM)/bFGF (1 ng/ml) were added. Each group consisted of 4 wells; the control was only incubated±growth factor. After 65 h, 50 μof MTT (2.5 mg/ml in PBS) were added and the supernatant was removed after 7 h. The colored substance formed by the living cells was dissolved by addition of 100 μl of DMSO/well. The absorption was measured at 492 nm for each well with the aid of a 340 CC Multiscan photometer (Flow).
The mean value is formed from the 4 wells of a group and the absorption difference between the controls± growth factor (A) and between the groups with test substance± growth factor (B) is determined.

[3] = A 431 membranes, 1000 nM EGF, 32 μM ATP, 15' at 30° C., max. 51 μg/ml, read-out: EGFRTK IC50 (converted)
[4] = 5 μg/ml, hela cells, EGF 0.1 nM, tox = toxic
[5] = 1 μg/ml, hela cells, EGF 0.1 nM, tox = toxic
[6] = hela cells, EGF 0.1 nM, tox = toxic

T1 sequence (P00533 25-1210): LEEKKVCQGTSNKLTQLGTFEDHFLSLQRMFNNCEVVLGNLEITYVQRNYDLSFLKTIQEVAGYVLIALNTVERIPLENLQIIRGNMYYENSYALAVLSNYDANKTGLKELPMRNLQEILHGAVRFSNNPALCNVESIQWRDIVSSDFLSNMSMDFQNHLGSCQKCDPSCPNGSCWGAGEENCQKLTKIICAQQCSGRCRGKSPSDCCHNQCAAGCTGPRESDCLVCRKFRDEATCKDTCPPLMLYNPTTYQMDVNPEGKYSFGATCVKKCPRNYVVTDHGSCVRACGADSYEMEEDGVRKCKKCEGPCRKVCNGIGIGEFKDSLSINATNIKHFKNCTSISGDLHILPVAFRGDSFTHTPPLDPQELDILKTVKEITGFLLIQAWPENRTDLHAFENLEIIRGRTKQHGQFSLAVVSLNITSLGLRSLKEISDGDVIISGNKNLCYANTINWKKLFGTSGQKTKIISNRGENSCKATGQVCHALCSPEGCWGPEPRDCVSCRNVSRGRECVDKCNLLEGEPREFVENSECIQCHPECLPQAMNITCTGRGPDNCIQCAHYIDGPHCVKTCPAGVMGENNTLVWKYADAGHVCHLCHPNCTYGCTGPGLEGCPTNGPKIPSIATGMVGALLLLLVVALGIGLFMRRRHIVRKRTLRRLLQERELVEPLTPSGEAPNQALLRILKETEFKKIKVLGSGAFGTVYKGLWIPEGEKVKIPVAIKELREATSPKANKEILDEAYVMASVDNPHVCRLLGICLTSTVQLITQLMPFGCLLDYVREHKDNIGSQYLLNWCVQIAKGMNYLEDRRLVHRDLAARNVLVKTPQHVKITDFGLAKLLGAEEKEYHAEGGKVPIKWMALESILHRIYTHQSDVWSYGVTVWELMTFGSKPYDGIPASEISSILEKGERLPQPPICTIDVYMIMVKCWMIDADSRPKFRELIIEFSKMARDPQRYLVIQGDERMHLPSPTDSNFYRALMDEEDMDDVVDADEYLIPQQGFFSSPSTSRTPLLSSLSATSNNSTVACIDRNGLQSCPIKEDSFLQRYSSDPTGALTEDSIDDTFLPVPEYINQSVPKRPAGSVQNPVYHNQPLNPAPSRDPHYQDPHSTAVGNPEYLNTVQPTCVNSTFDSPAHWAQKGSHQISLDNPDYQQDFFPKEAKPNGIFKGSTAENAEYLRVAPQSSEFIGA

## O=S(=O)([O-])c1cc(O)ccc1O.[K+]
[1]; [3]
  IC50: 8.06 µM
[2]
  PKA % inhib. at 40 μg/ml: 1%
Hela cells; HeLa
  inhibition at 5 µg/mL: 6%
  inhibition at 25 µg/mL: 14%

## Oc1ccc(O)c(O)c1 [1,2,4-Trihydroxybenzene]
[1]; [3]
  IC50: 190 µM
[2]
  PKA % inhib. at 40 μg/ml: 0%
Hela cells; [4]
  EGF stimulation % inhibition at 5 μg/ml: tox
Hela cells; HeLa
  inhibition at 1 µg/mL: 5%

## O=C1C=CC(=O)c2cc3ccccc3cc21 [1,4-Anthraquinone]
[1]; [3]
  IC50: 2.79 µM
Hela cells; [4]
  EGF stimulation % inhibition at 5 μg/ml: tox
Hela cells; [5]
  inhibition at 1 µg/mL: 33%

## Oc1ccc(O)c2ccccc12 [1,4-Naphthodiol]
[1]
  IC50: 9.36 µM
[2]
  PKA % inhib. at 40 μg/ml: 76%
Hela cells; [5]
  EGF stimulation % inhibition at 1 μg/ml: tox
Hela cells; HeLa
  inhibition at 0.2 µg/mL: 29%

## Cc1c(O)ccc(O)c1C [2,3-Dimethylhydroquinone]
[1]; [3]
  IC50: 4.64 µM
[2]
  PKA % inhib. at 40 μg/ml: 71%
Hela cells; [6]
  EGF stimulation % inhibition at 25 μg/ml: tox
Hela cells; [4]
  inhibition at 5 µg/mL: 17%

## Oc1ccc(N=Cc2cc(O)ccc2O)cc1 [2,5-Dihydroxy-N-(4'-hydroxyphenyl)benzaldimine]
[1]; [3]
  IC50: 55.1 µM
Hela cells; [6]
  EGF stimulation % inhibition at 25 μg/ml: tox
Hela cells; [4]
  inhibition at 5 µg/mL: 39%

## Oc1ccc(O)c(C=Nc2ccccc2)c1 [2,5-Dihydroxy-N-phenylbenzaldimine]
[1]; [3]
  IC50: 89.3 µM
Hela cells; [6]
  EGF stimulation % inhibition at 25 μg/ml: tox
Hela cells; [4]
  inhibition at 5 µg/mL: 24%

## O=C1C=CC(=O)C(Cl)=C1 [2-Chlorobenzoquinone]
[1]
  IC50: 9.68 µM
[2]
  PKA % inhib. at 40 μg/ml: 29%
Hela cells; [6]
  EGF stimulation % inhibition at 25 μg/ml: tox
Hela cells; HeLa
  inhibition at 5 µg/mL: 29%

## Oc1ccc(O)c(Cl)c1 [2-Chlorohydroquinone]
[1]
  IC50: 13.1 µM
[2]
  PKA % inhib. at 40 μg/ml: 0%
Hela cells; [6]
  EGF stimulation % inhibition at 25 μg/ml: tox
Hela cells; [4]
  inhibition at 5 µg/mL: 46%

## Cc1cc(O)ccc1O [2-Methylhydroquinone]
[1]; [3]
  IC50: 8.86 µM
[2]
  PKA % inhib. at 40 μg/ml: 46%
Hela cells; [5]
  inhibition at 1 µg/mL: 21%
Hela cells; [4]
  inhibition at 5 µg/mL: 66%

## Oc1ccc(O)c(-c2ccccc2)c1 [2-Phenylhydroquinone]
[1]; [3]
  IC50: 5.53 µM
[2]
  PKA % inhib. at 40 μg/ml: 25%
Hela cells; [5]
  inhibition at 1 µg/mL: 11%
Hela cells; [4]
  inhibition at 5 µg/mL: 66%

## CC(C)(C)c1cc(O)ccc1O [2-tert-Butylhydroquinone]
[1]; [3]
  IC50: 5.72 µM
[2]
  PKA % inhib. at 40 μg/ml: 22%
Hela cells; HeLa
  inhibition at 1 µg/mL: 21%
  inhibition at 5 µg/mL: 52%

## O=C(O)c1cccc(N=Cc2cc(O)ccc2O)c1 [3-[-(2',5'-Dihydroxybenzylidene)amino]benzoic acid]
[1]; [3]
  IC50: 77.9 µM
[2]
  PKA % inhib. at 40 μg/ml: 0%
Hela cells; [6]
  EGF stimulation % inhibition at 25 μg/ml: tox
Hela cells; [4]
  inhibition at 5 µg/mL: 44%

## O=C(O)c1ccc(NCc2cc(O)ccc2O)cc1 [4-[N-(2',5'-Dihydroxybenzyl)amino]benzoic acid]
[1]; [3]
  IC50: 17.8 µM
[2]
  PKA % inhib. at 40 μg/ml: 61%
Hela cells; [6]
  EGF stimulation % inhibition at 25 μg/ml: tox
Hela cells; [4]
  inhibition at 5 µg/mL: 36%

## O=C(O)c1cc(N=Cc2cc(O)ccc2O)ccc1O [5-[N-(2',5'-Dihydroxybenzylidene)amino]-2-hydroxybenzoic acid]
[1]; [3]
  IC50: 27.3 µM
[2]
  PKA % inhib. at 40 μg/ml: 0%
Hela cells; [6]
  EGF stimulation % inhibition at 25 μg/ml: tox
Hela cells; [4]
  inhibition at 5 µg/mL: 51%

## O=C1C=CC(=O)C=C1 [Benzoquinone]
[1]
  IC50: 0.463 µM
[2]
  PKA % inhib. at 40 μg/ml: 45%
Hela cells; [5]
  inhibition at 1 µg/mL: 36%
Hela cells; [4]
  inhibition at 5 µg/mL: 55%

## O=C(O)c1ccc(N=Cc2cc(O)ccc2O)cc1 [Ex. 1, 4-[N-(2',5'-Dihydroxybenzylidene)amino]benzoic acid]
[1]; [3]
  IC50: 67.5 µM
[2]
  PKA % inhib. at 40 μg/ml: 0%
Hela cells; [6]
  EGF stimulation % inhibition at 25 μg/ml: tox
Hela cells; [4]
  inhibition at 5 µg/mL: 48%

## CN=Cc1cc(O)ccc1O [Ex. 2, 2,5-Dihydroxy-N-methylbenzaldimine]
[1]; [3]
  IC50: 13.1 µM
[2]
  PKA % inhib. at 40 μg/ml: 0%
Hela cells; [6]
  EGF stimulation % inhibition at 25 μg/ml: tox
Hela cells; [4]
  inhibition at 5 µg/mL: 21%

## Oc1ccc(O)c(C=NCc2ccccc2)c1 [Ex. 3, N-Benzyl-2,5-dihydroxybenzaldimine]
[1]; [3]
  IC50: 7.48 µM
[2]
  PKA % inhib. at 40 μg/ml: 0%
Hela cells; [6]
  EGF stimulation % inhibition at 25 μg/ml: tox
Hela cells; [4]
  inhibition at 5 µg/mL: 28%

## CN(C)N=Cc1cc(O)ccc1O [Ex. 4, 2,5-Dihydroxy-N,N-dimethylbenzaldehyde hydrazone]
[1]; [3]
  IC50: 7.66 µM
[2]
  PKA % inhib. at 40 μg/ml: 63%
Hela cells; [6]
  EGF stimulation % inhibition at 25 μg/ml: tox
Hela cells; [4]
  inhibition at 5 µg/mL: 46%

## COC(=O)[C@H](Cc1c[nH]cn1)N=Cc1cc(O)ccc1O [Ex. 5, (S)-α-N-(2,5-Dihydroxybenzylidene)histidine methyl ester]
[1]
  IC50: 43.7 µM
[2]
  PKA % inhib. at 40 μg/ml: 0%
Hela cells; HeLa
  inhibition at 5 µg/mL: 10%
  inhibition at 25 µg/mL: 44%

## CCCCCCN=Cc1cc(O)ccc1O [Ex. 6, N-Hexyl-2,5-dihydroxybenzaldimine]
[1]; [3]
  IC50: 95.6 µM
[2]
  PKA % inhib. at 40 μg/ml: 0%
Hela cells; [6]
  EGF stimulation % inhibition at 25 μg/ml: tox
Hela cells; [4]
  inhibition at 5 µg/mL: 18%

## CCN=Cc1cc(O)ccc1O [Ex. 7, N-Ethyl-2,5-hydroxybenzaldimine]
[1]; [3]
  IC50: 74.2 µM
[2]
  PKA % inhib. at 40 μg/ml: 0%
Hela cells; [6]
  EGF stimulation % inhibition at 25 μg/ml: tox
Hela cells; [4]
  inhibition at 5 µg/mL: 28%

## CC(C)N=Cc1cc(O)ccc1O [Ex. 8, 2,5-Dihydroxy-N-isopropylbenzaldimine]
[1]; [3]
  IC50: 46.3 µM
[2]
  PKA % inhib. at 40 μg/ml: 0%
Hela cells; [6]
  EGF stimulation % inhibition at 25 μg/ml: tox
Hela cells; [4]
  inhibition at 5 µg/mL: 28%

## Oc1ccc(O)c(C=NN2CCCCC2)c1 [Ex. 10, 2,5-Dihydroxy-N-piperidinobenzaldimine]
[1]; [3]
  IC50: 47.7 µM
[2]
  PKA % inhib. at 40 μg/ml: 0%

## O=Cc1cc(O)ccc1O [Gentisaldehyde]
[1]; [3]
  IC50: 145 to 217 µM
Hela cells; [5]
  inhibition at 1 µg/mL: 0%
Hela cells; [4]
  inhibition at 5 µg/mL: 16%

## Oc1ccc(O)cc1 [Hydroquinone]
[1]; [3]
  IC50: 0.908 µM
Hela cells; HeLa
  inhibition at 1 µg/mL: 29%
  inhibition at 5 µg/mL: 43%

## Cc1cc(O)c2ccccc2c1O [Menadiol]
[1]; [3]
  IC50: 150 µM
[2]
  PKA % inhib. at 40 μg/ml: 0%

## O=C1C=CC(=O)c2ccccc21 [Naphthoquinone]
[1]
  IC50: 1.26 µM
Hela cells; 0.2 μg/ml, hela cells, EGF 0.1 nM
  inhibition at 0.2 µg/mL: 11%
